One assay addresses hROMK (hKir1.1) (Homo sapiens (Human), UniProt P48048). As to the kind of experiment: Thallium Flux Assay (ROMK channel functional thallium flux, FLIPR-Tetra). Type of assay: cell-based. How it is done:
Another ROMK functional assay makes use of the ability of thallium to permeate through open ROMK channels and increase the fluorescence of a dye previously loaded into the cells. Under control conditions, cells loaded with dye and exposed to thallium-containing medium display a time-dependent increase in fluorescence, the rate of which depends on number of functional channels. When cells are incubated in the presence of a channel inhibitor, the increase in fluorescence is attenuated in a concentration-dependent manner, and IC50 values of inhibition by compounds can be accurately determined. This assay has been established with cell lines expressing either human, or rat ROMK channels, and operates in 384-well format.
HEK293 cells stably expressing hROMK (hKir1.1) were grown at 37° C. in a 10% CO2 humidified incubator in complete growth media: Dulbecco's Modified Eagle Medium supplemented with non-essential amino acids, Penicillin/Streptomycin/Glutamine, G418 and FBS. At >80% confluency, the media was aspirated from the flask and the sample was rinsed with 10 ml Calcium/Magnesium-free PBS. […] To dislodge the cell, the side of the flask was gently banged with a hand. The cells were triturated completely and then transferred to 25 ml complete media. The sample was then centrifuged at 1,500 rpm for 6 minutes, followed by resuspension in complete growth media and then cell concentration was determined. […] Under ideal growth conditions and appropriate tissue culture practices, this cell line is stable for 40-45 passages.
FluxOR Kit Components (Invitrogen F10017)
• FluxOR™ Reagent (Component A) • FluxOR™ Assay Buffer (Component B)—10× Concentrate • PowerLoad™ Concentrate (Component C)—100× Concentrate • Probenecid (Component D)—Lyophilized sample is kept at −20° C. Water soluble, 100× after solubilization in 1 ml water. […] Store at 4° C. • Thallium sulfate (Tl2SO4) Concentrate (Component G)—50 mM in water. Store at 4° C. • DMSO (dimethyl sulfoxide, Component H)—1 ml (100%) Reagent Preparation— FluxOR Working Solutions • 1000× FluxOR™ Reagent: Reconstitute a vial of component A in 100 μl DMSO; Mix well; Store 10 μl aliquots at −20° C. • 1× FluxOR™ Assay Buffer: Dilute Component B 10-fold with water; Adjust pH to 7.4 with Hepes/NaOH; Filter and store at 4° C. • Probenecid/Assay Buffer: 100 ml of 1× FluxOR™ Assay Buffer; 1 ml of reconstituted component D; Store at 4° C. • Loading Buffer (per microplate): 10 μl 1000× FluxOR™ Reagent; 100 μl component C; 10 ml Probenecid/Assay Buffer • Compound Buffer (per microplate): 20 ml Probenecid/Assay Buffer; 0.3 mM ouabain (10 mM ouabain in water can be stored in amber bottle/aluminum foil at room temperature);
Test compound • 1× FluxOR™ Chloride-Free Buffer: Prepare 1× working solution in water. Can be stored at room temperature • Stimulant Buffer (prepared at 5× final concentration in 1× FluxOR™ Chloride-Free Buffer): 7.5 mM Thallium sulfate and 0.75 mM Potassium sulfate (to give a final assay concentration of 3 mM Thallium/0.3 mM Potassium). Store at 4° C. when not in use. If kept sterile, this solution is good for months. Assay Protocol—
The ROMK channel functional thallium flux assay is performed in 384 wells, using the FLIPR-Tetra instrument. HEK-hKir1.1 cells are seeded in Poly-D-Lysine microplates and kept in a 37° C.-10% CO2 incubator overnight. On the day of the experiment, the growth media is replaced with the FluxOR™ reagent loading buffer and incubated, protected from light, at ambient temperature (23-25° C.) for 90 min. The loading buffer is replaced with assay buffer±test compound followed by 30 min incubation at ambient temperature, where the Thallium/Potassium stimulant is added to the microplate.
• 1. Seed HEK-hKir1.1 cells (50 μl at 20,000 cells/well) in 384-well PDL coated Microplates • 2. Allow cells to adhere overnight in humidified 37° C./10% CO2 incubator • 3. Completely remove cell growth media from microplate and replace with 25 μl loading buffer • 4.

The target of a further assay is Kir1.1 (ROMK1) (Homo sapiens (Human), UniProt P48048). As to the kind of experiment: Electrophysiology Assay (whole cell voltage clamp, IonWorks Quattro). It is filed as cell-based. An excerpt:
Several assays may be used to measure functional inhibition of the ROMK channel by compounds of the instant invention. One assay that can be used is an electrophysiology assay that measures the electrical current that is generated as potassium permeates through the channel.
Block of Kir1.1 (ROMK1) currents was examined by whole cell voltage clamp (Hamill et. al. Pfluegers Archives 391:85-100 (1981)) using the IonWorks® Quattro automated electrophysiology platform (Molecular Devices, Sunnyvale, Calif.). Chinese hamster ovary cells stably expressing Kir1.1 channels were maintained in T-75 flasks in cell culture media in a humidified 10% CO2 incubator at 37° C. Prior to an experiment, Kir1.1 expression was induced by overnight incubation with 1 mM sodium butyrate. On the day of the experiment, cells were dissociated with 2.5 ml of Versene™ (Invitrogen 15040-066) for approximately 6 minutes at 37° C. and suspended in 10 ml of bath solution containing (in mM): 150 NaCl, 10 KCl, 2.7 CaCl2, 0.5 MgCl2, 5 HEPES, pH 7.4. After centrifugation, the cell pellet was resuspended in approximately 4.0 ml of bath solution and placed in the IonWorks® instrument. The intracellular solution consisted of (in mM): 80 K gluconate, 40 KCl, 20 KF, 3.2 MgCl2, 3 EGTA, 5 Hepes, pH 7.4. Electrical access to the cytoplasm was achieved by perforation in 0.13 mg/ml amphotericin B for 4 minutes. Amphotericin B (Sigma A-4888) was prepared as a 40 mg/ml solution in DMSO.
Voltage protocols and current recordings were performed using the IonWorks® HT software/hardware system. Currents were sampled at 1 kHz. No correction for liquid junction potentials was used. The test pulse, consisting of a 100 ms step to 0 mV from a holding potential of −70 mV, followed by a 100 ms voltage ramp from −70 mV to +70 mV, was applied before and after a 6 minutes compound incubation period. Test compounds were prepared by diluting DMSO stock solutions into the bath solution at 3× the final concentration and placed in the instrument in 96-well polypropylene plates. Current amplitudes were measured using the IonWorks® software. To assess compound potency, the fractional block during the voltage step to 0 mV was calculated in Microsoft® Excel (Microsoft, Redmond, Calif.), and dose-response curves were fitted with Igor Pro 4.0 (WaveMetrics, Lake Oswego, Oreg.).

Where [1] appears, read: HEK293 cells stably expressing hROMK (hKir1.1), read-out: Thallium Flux Assay IC50.
Where [2] appears, read: Chinese hamster ovary cells stably expressing Kir1.1, block during voltage step to 0 mV, read-out: EP Assay IC50.

Where two headings read alike, the source gives them in different places.

Chain of Kir1.1 (ROMK1) (P48048 whole entry, species assumed): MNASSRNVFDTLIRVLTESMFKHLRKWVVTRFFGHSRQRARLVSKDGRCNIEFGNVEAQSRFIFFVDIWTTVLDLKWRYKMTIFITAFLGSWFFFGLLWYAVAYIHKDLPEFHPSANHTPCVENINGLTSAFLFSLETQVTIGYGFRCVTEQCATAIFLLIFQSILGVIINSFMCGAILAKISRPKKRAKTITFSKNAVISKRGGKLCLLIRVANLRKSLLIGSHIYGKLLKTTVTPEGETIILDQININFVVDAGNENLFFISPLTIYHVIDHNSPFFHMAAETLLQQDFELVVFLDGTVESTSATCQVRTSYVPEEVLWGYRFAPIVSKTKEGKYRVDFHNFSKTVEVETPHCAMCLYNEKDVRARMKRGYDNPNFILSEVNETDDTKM
Chain of hROMK (hKir1.1) (P48048 whole entry): as the sequence (P48048 whole entry, species assumed) above

As to `Cc1c([C@@H](O)CN2CCN(CCc3ccc4c(c3)C[C@@H](C)OC4=O)CC2)ccc2c1COC2=O` [Example 28, 4-[(2R)-2-Hydroxy-2-(4-methyl-1-oxo-1,3-dihydro-2-benzofuran-5-yl)ethyl]-1-{2-[(3R)-3-methyl-1-oxo-3,4-dihydro-1H-isochromen-6-yl]ethyl}piperazine], the IC50 at hROMK (hKir1.1) (setting [1]) is 22 nM; at Kir1.1 (ROMK1) (setting [2]), 33 nM.

In the case of `Cc1c([C@@H](O)CN2CC3CCC2CN3S(=O)(=O)c2ccc(-n3cnnn3)cc2)ccc2c1COC2=O` (single isomer, unassigned) [Example 17A], the IC50 at hROMK (hKir1.1) (setting [1]) was found to be 508 nM; on Kir1.1 (ROMK1) (setting [2]) it was 170 nM.

On to `Cc1c([C@@H](O)CN2C3COCC2CN(CC(O)c2ccc4c(c2)C[C@@H](C)OC4=O)C3)ccc2c1COC2=O` (single isomer, unassigned) [Example 24B], for which the IC50 amounted to 36.1 nM at hROMK (hKir1.1) (Thallium Flux Assay IC50) and 66 nM against Kir1.1 (ROMK1).

Consider `Cc1cc(-n2cnnn2)ncc1[C@@H](O)CN1CCN(C[C@H](O)c2ccc3c(c2C)COC3=O)CC1` (single isomer, unassigned) [Example 35A], for which the IC50 was 105 nM at hROMK (hKir1.1) (setting [1]) and 29 nM at Kir1.1 (ROMK1) (setting [2]).

Turning to `Cc1c([C@@H](O)CN2C3CCC2C2CCC3N2CC(O)c2ccc(C#N)cn2)ccc2c1COC2=O` (single isomer, unassigned) [Example 8], the IC50 at hROMK (hKir1.1) (setting [1]) was 915 nM.

For the molecule `Cc1c([C@@H](O)CN2CCN(C[C@H](O)c3ccc4c(c3)C[C@H](C)OC4=O)CC2)ccc2c1COC2=O` (single isomer, unassigned) [Example 37A], the IC50 at hROMK (hKir1.1) (setting [1]) was determined as 685 nM; on Kir1.1 (ROMK1) (setting [2]), 71 nM.

In the case of `COc1cc(C(O)CN2C3CCC2C2CCC3N2C[C@H](O)c2ccc3c(c2C)COC3=O)ncc1C#N` (single isomer, unassigned) [Example 9], the IC50 at hROMK (hKir1.1) (setting [1]) and at Kir1.1 (ROMK1) (setting [2]) was 23 nM throughout.

As to `Cc1c([C@@H](O)CN2CCN(CC(O)c3ccc(-n4cnnn4)nc3)CC2)ccc2c1COC2=O` (single isomer, unassigned) [Example 34B], the values for the IC50 on hROMK (hKir1.1) (read-out: Thallium Flux Assay IC50) and at Kir1.1 (ROMK1) (read-out: EP Assay IC50) were 147 nM and 14 nM, respectively.

For `COc1cc(C(O)CN2CCN(CC(O)c3ccc4c(c3)C[C@H](C)OC4=O)CC2)ncc1C#N` (single isomer, unassigned) [Example 44B], the values for the IC50 at hROMK (hKir1.1) (setting [1]) and on Kir1.1 (ROMK1) (setting [2]) were 243 nM and 18 nM, respectively.

As to `Cc1c([C@@H](O)CN2C3COCC2CN(CC(O)c2ccc(C#N)cn2)C3)ccc2c1COC2=O` (stereo partly drawn) [Example 19, 6-(1-Hydroxy-2-(9-((R)-2-hydroxy-2-(4-methyl-1-oxo-1,3-dihydroisobenzofuran-5-yl)ethyl)-3-oxa-7,9-diazabicyclo[3.3.1]nonan-7-yl)ethyl)nicotinonitrile], the IC50 on hROMK (hKir1.1) (setting [1]) was 1620 nM.

Turning to `Cc1c([C@H](O)CN2CCN(CCc3ccc4c(c3)C[C@@H](C)OC4=O)CC2)ccc2c1COC2=O` [Example 29, (R)-6-(2-(4-((S)-2-Hydroxy-2-(4-methyl-1-oxo-1,3-dihydroisobenzofuran-5-yl)ethyl)piperazin-1-yl)ethyl)-3-methylisochroman-1-one], the IC50 at hROMK (hKir1.1) (setting [1]) is 185 nM; at Kir1.1 (ROMK1) (setting [2]) it was 145 nM.

Take `Cc1c([C@@H](O)CN2C[C@@H]3C[C@H]2CN3S(=O)(=O)c2ccc(C#N)cc2)ccc2c1COC2=O` [Example 3, 4-((1S,4S)-5-((R)-2-Hydroxy-2-(4-methyl-1-oxo-1,3-dihydroisobenzofuran-5-yl)ethyl)-2,5-diazabicyclo[2.2.1]heptan-2-ylsulfonyl)benzonitrile]: the figures for the concentration for half-maximal inhibition (IC50) on hROMK (hKir1.1) (setting [1]) and at Kir1.1 (ROMK1) (setting [2]) were 636 nM and 200 nM, respectively.

As to `Cc1c([C@@H](O)CN2CCN(C[C@H](O)c3ccc4c(c3C)COC4=O)C(C)(C)C2)ccc2c1COC2=O` [Example 2, 5,5′-{(2,2-dimethylpiperazine-1,4-diyl)bis[(1R)-1-hydroxyethane-2,1-diyl]}bis(4-methyl-2-benzofuran-1(3H)-one)], the results for the half-inhibitory concentration (IC50) at hROMK (hKir1.1) (setting [1]) and at Kir1.1 (ROMK1) (setting [2]) were 113 nM and 41 nM, respectively.

In the case of `COc1cc(C(O)CN2C3CCC2C2CCC3N2C[C@H](O)c2ccc3c(c2C)COC3=O)ncc1C#N` (single isomer, unassigned) [Example 6], the 50% inhibitory concentration (IC50) at hROMK (hKir1.1) (setting [1]) came out at 26 nM; at Kir1.1 (ROMK1) (setting [2]), 21 nM.

Take `Cc1c([C@@H](O)CN2CCN(C[C@H](O)c3ccc4c(c3C)COC4=O)C3(CC3)C2)ccc2c1COC2=O` [Example 4, 5,5′-(1R,1′R)-2,2′-(4,7-Diazaspiro[2.5]octane-4,7-diyl)bis(1-hydroxyethane-2,1-diyl)bis(4-methylisobenzofuran-1(3H)-one)]: at hROMK (hKir1.1) (Thallium Flux Assay IC50), the IC50 was 635 nM.

At hROMK (hKir1.1) (Thallium Flux Assay IC50), `Cc1c([C@@H](O)CN2C3COCC2CN(CC(O)c2ccc4c(c2)C[C@@H](C)OC4=O)C3)ccc2c1COC2=O` (single isomer, unassigned) [Example 24A] came in with a 50% inhibitory concentration (IC50) of 2040 nM.

For the molecule `Cc1c([C@@H](O)CN2CCN(C[C@@H](O)c3ccc4c(c3)CCS4(=O)=O)CC2)ccc2c1COC2=O` (single isomer, unassigned) [Example 43B], at hROMK (hKir1.1) (setting [1]), the IC50 stood at 52.4 nM.

Turning to `Cc1c([C@@H](O)CN2CC3CCC2CN3S(=O)(=O)c2ccc(-n3cnnn3)cc2)ccc2c1COC2=O` (single isomer, unassigned) [Example 17B], the IC50 on hROMK (hKir1.1) (setting [1]) turned out to be 997 nM.

As for `Cc1c([C@@H](O)CN2CCCCN(C[C@H](O)c3ccc4c(c3C)COC4=O)CC2)ccc2c1COC2=O` [Example 27, 5,5′-(1R,1′R)-2,2′-(1,4-Diazocane-1,4-diyl)bis(1-hydroxyethane-2,1-diyl)bis(4-methylisobenzofuran-1(3H)-one)], the half-maximal inhibitory concentration (IC50) at hROMK (hKir1.1) (setting [1]) was 697 nM.

The values above are taken from patent US9139585B2 (Merck Sharp & Dohme Corp., priority 2011, dated 2015).
